Among the data in US8916599B2, “1H-benz imidazole-5-carboxamides as anti-inflammatory agents” (Orexo AB, priority 2008, dated 2014) are inhibition values, retold here.

SMILES strings stand for the structures.

One experiment has as its target T1, recombinant human mPGES-1 (Homo sapiens, UniProt O14684).
T1 construct: made in house; host or cells: Rosetta E. coli (microsomal/membrane fraction)
T1 sequence (O14684 1-152): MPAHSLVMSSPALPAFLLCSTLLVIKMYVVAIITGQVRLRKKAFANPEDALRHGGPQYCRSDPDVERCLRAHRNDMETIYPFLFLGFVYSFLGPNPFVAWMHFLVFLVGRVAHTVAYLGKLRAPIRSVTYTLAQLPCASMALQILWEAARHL
Description: mPGES-1 inhibition test (microsomes, PGH2 substrate, HTRF detection of PGE2). In kind it is biochemical. The conditions noted are these: inhibition of mPGES-1 at 1 μM (marked in cell). In short, it runs like this: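 PGE2 formed from PGH2 in one minute by E. coli-expressed microsomal enzyme (pH 7.4, 2.5 mM GSH) was measured by competitive HTRF against a synthetic PGE2 standard curve. Compounds were preincubated 25 min at room temperature.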
For `O=C(Nc1cccc(Br)c1)c1ccc2[nH]c(Nc3c(Cl)cccc3Cl)nc2c1` [Example 69, 2-(2,6-Dichloro-phenylamino)-1H-benzimidazole-5-carboxylic acid (3-bromo-phenyl)-amide], the inhibition at 1 µM was 100%.
Take `O=C(Nc1ccc(Br)c(F)c1)c1ccc2[nH]c(Nc3c(Cl)cccc3Cl)nc2c1` [Example 68, 2-(2,6-Dichloro-phenylamino)-1H-benzimidazole-5-carboxylic acid (4-bromo-3-fluoro-phenyl)-amide]: the inhibition at 1 µM came to 100%.
Same read-out and setting: the result for `COc1cc2[nH]c(Nc3c(Cl)ccc(C)c3F)nc2cc1C(=O)NC1CCCCC1` [Example 628, 2-(6-Chloro-2-fluoro-3-methyl-phenylamino)-6-methoxy-N-cyclohexyl-1H-benzimidazole-5-carboxamide] reads 98%.

Staying with this experiment, now noted: inhibition of mPGES-1 at 10 μM.
As for `CCCC[C@@H](C)NC(=O)c1cc2nc(Nc3c(Cl)cccc3Cl)[nH]c2cc1F` [Example 457, (R)-2-(2,6-Dichlorophenylamino)-6-fluoro-N-(hexan-2-yl)-1H-benzimidazole-5-carboxamide], the inhibition at 10 µM is 100%.
On the same count and under the same terms, then `O=C(N[C@H]1CC[C@H](C(F)(F)F)CC1)c1cc2nc(Nc3c(Cl)cccc3Cl)[nH]c2cc1F` [Example 155, 2-(2,6-Dichloro-phenylamino)-6-fluoro-1H-benzimidazole-5-carboxylic acid (trans-4-trifluoromethyl-cyclohexyl)-amide], with 100%.
On to `Cn1c(Nc2c(Cl)cccc2Cl)nc2cc(C(=O)Nc3cc(Cl)ccn3)c(F)cc21` [Example 129, 2-(2,6-Dichloro-phenylamino)-6-fluoro-1-methyl-1H-benzimidazole-5-carboxylic acid (4-chloro-pyridin-2-yl)-amide], for which the inhibition at 10 µM was found to be 92%.
Take `CS(=O)(=O)CCn1c(Nc2c(Cl)cccc2Cl)nc2cc(C(=O)Nc3cc(Cl)ccn3)ccc21` [Example 269, 2-(2,6-Dichloro-phenylamino)-1-(2-methanesulfonyl-ethyl)-1H-benzimidazole-5-carboxylic acid (4-chloro-pyridin-2-yl)-amide]: the inhibition at 10 µM turned out to be 85%.
Still for that read-out and setting: the result for `Cc1cccc(C)c1Nc1nc2cc(C(=O)Nc3ccc(Br)cc3)ccc2n1C` [compound 318] reads 100%.
Still for that read-out and setting: then `COc1cc2[nH]c(Nc3c(Cl)cc(F)cc3Cl)nc2cc1C(=O)NCc1ncccc1C(F)(F)F` [Example 580, 2-(2,6-Dichloro-4-fluoro-phenylamino)-6-methoxy-N-((3-trifluoromethyl-pyridin-2-yl)-methyl)-1H-benzimidazole-5-carboxamide], with 100%; and `Cc1cc2[nH]c(Nc3c(Cl)cccc3Cl)nc2cc1C(=O)Nc1ccc(Cl)c(F)c1` [Example 145, 2-(2,6-Dichloro-phenylamino)-6-methyl-1H-benzimidazole-5-carboxylic acid (4-chloro-3-fluorophenyl)-amide], with 100%; and `Cn1c(Nc2c(Cl)cccc2Cl)nc2cc(C(=O)Nc3cc(C(F)(F)F)ccn3)ccc21` [Example 203, 2-(2,6-Dichloro-phenylamino)-1-methyl-1H-benzimidazole-5-carboxylic acid (4-trifluoromethyl-pyridin-2-yl)-amide], with 100%.
Same read-out and setting: then `Cc1cc(Cl)cc(Cl)c1Nc1nc2cc(C(=O)Nc3ccc(Br)cc3)ccc2n1C` [Example 402, N-(4-Bromophenyl)-2-(2,4-dichloro-6-methylphenylamino)-1-methyl-1H-benzimidazole-5-carboxamide], with 100%; and `Cn1c(Nc2c(Cl)cccc2Cl)nc2cc(C(=O)Nc3cccc(S(C)(=O)=O)c3)ccc21` [Example 248, 2-(2,6-Dichloro-phenylamino)-1-methyl-1H-benzimidazole-5-carboxylic acid (3-methanesulfonyl-phenyl)-amide], with 73%.
With `NCCCn1c(Nc2c(Cl)cccc2Cl)nc2cc(C(=O)Nc3cc(Cl)ccn3)ccc21` [Example 208, 2-(2,6-Dichloro-phenylamino)-1-(3-amino-propyl)-1H-benzimidazole-5-carboxylic acid (4-chloro-pyridin-2-yl)-amide(trifluoro-acetate)], the inhibition at 10 µM came to 100%.
As to `Cn1c(Nc2c(Cl)cccc2Cl)nc2cc(C(=O)NC3CC4CCCCC4C3)c(F)cc21` (stereo not drawn) [Example 163, 2-(2,6-Dichloro-phenylamino)-6-fluoro-1-methyl-1H-benzimidazole-5-carboxylic acid (octahydro-inden-2-yl)-amide], the inhibition at 10 µM amounted to 100%.
On the same count and under the same terms, the result for `COc1cc2c(cc1C(=O)NCc1ccccc1C(F)(F)F)nc(Nc1c(Cl)cccc1Cl)n2C` [Example 136, 2-(2,6-Dichloro-phenylamino)-6-methoxy-1-methyl-1H-benzimidazole-5-carboxylic acid 2-trifluoromethyl-benzylamide] reads 98%; that for `Cc1cc2[nH]c(Nc3c(Cl)cccc3Cl)nc2cc1C(=O)Nc1ccc(C(C)(C)C)cc1` [Example 122, 2-(2,6-Dichloro-phenylamino)-6-methyl-1H-benzimidazol-5-carboxylic acid (4-tert.-butyl-phenyl)-amide], 99%; that for `COc1cc2c(cc1C(=O)NC1CCCCC1)nc(Nc1c(Cl)cccc1Cl)n2C` [Example 135, 2-(2,6-Dichloro-phenylamino)-6-methoxy-1-methyl-1H-benzimidazole-5-carboxylic acid cyclohexylamide], 100%.
On the same count and under the same terms, the result for `O=C(Nc1cc(Cl)ccn1)c1ccc2c(c1)nc(Nc1c(Cl)cccc1Cl)n2CCO` [Example 271, 2-(2,6-Dichloro-phenylamino)-1-(2-hydroxy-ethyl)-1H-benzimidazole-5-carboxylic acid (4-chloro-pyridin-2-yl)-amide] reads 98%.
On the same count and under the same terms, then `CC(=O)NCCCn1c(Nc2c(Cl)cccc2Cl)nc2cc(C(=O)Nc3cc(Cl)ccn3)ccc21` [Example 268, 2-(2,6-Dichloro-phenylamino)-1-(3-acetylamino-propyl)-1H-benzimidazole-5-carboxylic acid (4-chloro-pyridin-2-yl)-amide], with 94%; and `Cn1c(Nc2c(Cl)cccc2Cl)nc2cc(C(=O)NCc3ncccc3C3CC3)c(F)cc21` [Example 422, N-((3-Cyclopropylpyridin-2-yl)methyl)-2-(2,6-dichlorophenylamino)-6-fluoro-1-methyl-1H-benzimidazole-5-carboxamide], with 100%; and `Cc1ccc(Nc2nc3cc(C(=O)Nc4ccc(Br)cc4)ccc3n2C)c(Cl)c1` [Example 512, N-(4-Bromophenyl)-2-(2-chloro-4-methylphenylamino)-1-methyl-1H-benzimidazole-5-carboxamide], with 99%.
With `Cn1c(Nc2c(Cl)cccc2Cl)nc2cc(C(=O)NCCc3ccccn3)ccc21` [Example 258, 2-(2,6-Dichloro-phenylamino)-1-methyl-1H-benzimidazole-5-carboxylic acid (2-pyridin-2-yl-ethyl)-amide], the inhibition at 10 µM came out at 83%.
With `COc1ccnc(NC(=O)c2ccc3[nH]c(Nc4c(Cl)cccc4Cl)nc3c2)c1` [Example 188, 2-(2,6-Dichloro-phenylamino)-1H-benzimidazole-5-carboxylic acid (4-methoxy-pyridin-2-yl)-amide], the inhibition at 10 µM stood at 96%.
On the same count and under the same terms, then `O=C(NCC1CCOCC1)c1ccc2[nH]c(Nc3c(Cl)cccc3Cl)nc2c1` [Example 217, 2-(2,6-Dichloro-phenylamino)-1H-benzimidazole-5-carboxylic acid (tetrahydro-pyran-4-ylmethyl)-amide], with 54%; and `N[C@H]1C[C@H](n2c(Nc3c(Cl)cccc3Cl)nc3cc(C(=O)Nc4cc(Cl)ccn4)ccc32)C1` [Example 270, 2-(2,6-Dichloro-phenylamino)-1-(trans-3-amino-cyclobutyl)-1H-benzimidazole-5-carboxylic acid (4-chloro-pyridin-2-yl)-amide], with 96%.
Still for that read-out and setting: the result for `Cn1c(Nc2cc(C(N)=O)ccc2Cl)nc2cc(C(=O)Nc3ccc(Br)cc3)ccc21` [Example 537, N-(4-Bromophenyl)-2-(5-carbamoyl-2-chlorophenylamino)-1-methyl-1H-benzimidazole-5-carboxamide] reads 99%.
For `Cn1c(Nc2c(Cl)cccc2Cl)nc2cc(C(=O)NC3CCC4(CC3)CC4)ccc21` [Example 483, 2-(2,6-Dichlorophenylamino)-1-methyl-N-(spiro[2.5]octan-6-yl)-1H-benzimidazole-5-carboxamide], the inhibition at 10 µM turned out to be 95%.
On the same count and under the same terms, then `O=C(Nc1ccccc1)c1ccc2[nH]c(Nc3cc(Cl)ccc3Cl)nc2c1` [Example 7, 2-(2,5-Dichloro-phenylamino)-1H-benzimidazole-5-carboxylic acid-phenylamide], with 100%; and `CC(C)[C@H]1CC[C@H](NC(=O)c2cc3nc(Nc4c(F)cccc4Cl)n(C)c3cc2F)CC1` [Example 368], with 100%; and `COc1cc2nc(Nc3c(Cl)cccc3Cl)[nH]c2cc1C(=O)Nc1ccc(Cl)c(F)c1` [Example 197], with 100%.
On the same count and under the same terms, then `Cn1c(Nc2c(Cl)cccc2Cl)nc2cc(C(=O)NC3CCCCC3C(F)(F)F)ccc21` (stereo not drawn) [Example 254, 2-(2,6-Dichloro-phenylamino)-1-methyl-1H-benzimidazole-5-carboxylic acid (2-trifluoromethyl-cyclohexyl)-amide], with 100%; and `Cn1c(Nc2c(F)cccc2Cl)nc2cc(C(=O)NCCC3CC3)c(F)cc21` [Example 502, 2-(2-Chloro-6-fluorophenylamino)-N-(2-cyclopropylethyl)-6-fluoro-1-methyl-1H-benzimidazole-5-carboxamide], with 96%.
